Measurements from ChEMBL document CHEMBL3885881, “DrugMatrix”.

Organism: Rattus norvegicus
Test: DrugMatrix - Regimen: Daily Repeat
Type: toxicity, organism-based, Sprague-Dawley
Set-up: regimen Daily Repeat, gender Male, age 6-8 weeks
Conditions: in vivo, iv, vehicle 100 % SALINE; for ABSOLUTE BASOPHIL / ABSOLUTE EOSINOPHIL / ABSOLUTE LYMPHOCYTE / ABSOLUTE MONOCYTE / ABSOLUTE SEGMENTED NEUTROPHIL / BASOPHIL / EOSINOPHIL / ERYTHROCYTE COUNT / HEMATOCRIT / HEMOGLOBIN / LEUKOCYTE COUNT / LYMPHOCYTE / MEAN CORPUSCULAR HEMOGLOBIN / MEAN CORPUSCULAR HEMOGLOBIN CONCENTRATION / MEAN CORPUSCULAR VOLUME / MONOCYTE / NEUTROPHIL / NUCLEATED RED BLOOD CELLS / PLATELET COUNT: tissue Blood; for ALANINE AMINOTRANSFERASE / ALBUMIN / ALKALINE PHOSPHATASE / ASPARTATE AMINOTRANSFERASE / BLOOD UREA NITROGEN / CARBON DIOXIDE / CHLORIDE / CHOLESTEROL / CREATINE PHOSPHOKINASE / CREATININE / GLUCOSE / LACTATE DEHYDROGENASE / LIPASE / PHOSPHORUS / POTASSIUM / SODIUM / TOTAL BILIRUBIN / TOTAL PROTEIN / URIC ACID: tissue Plasma
[1] = 0 mg/kg, 72 h, dose level Control, time 3 day
[2] = 0 mg/kg, 120 h, dose level Control, time 5 day
[3] = […], 72 h, dose 0.0033 mg/Kg, dose level Low, time 3 day
[4] = […], 72 h, dose 0.033 mg/Kg, dose level High, time 3 day

Question: How did the “ABSOLUTE BASOPHIL” value [1] turn out when `COc1cc2c3cc1Oc1cc(ccc1O)C[C@@H]1c4c(cc(OC)c(O)c4Oc4ccc(cc4)C[C@@H]3N(C)CC2)CC[N+]1(C)C.[Cl-]` was run?
Answer: 0 CELLS/uL

Question: What about the “ABSOLUTE EOSINOPHIL” value [1] of the same compound?
Answer: 0 CELLS/uL

Question: And the “ABSOLUTE LYMPHOCYTE” value [1]?
Answer: 11636.83 CELLS/uL

Question: And the “ABSOLUTE MONOCYTE” value [1]?
Answer: 159 CELLS/uL

Question: What about the “ABSOLUTE SEGMENTED NEUTROPHIL” value [1] of the same compound?
Answer: 1170.83 CELLS/uL

Question: And the BASOPHIL [1]?
Answer: 0%

Question: What about the EOSINOPHIL [1] of the same compound?
Answer: 0%

Question: And the “ERYTHROCYTE COUNT” value [1]?
Answer: 5.46 x10E6/uL

Question: What about the HEMATOCRIT [1] of the same compound?
Answer: 34.05%

Question: And the HEMOGLOBIN [1]?
Answer: 13.58 G/DL

Question: What about the “LEUKOCYTE COUNT” value [1] of the same compound?
Answer: 12.97 x10E3/uL

Question: And the LYMPHOCYTE [1]?
Answer: 89.67%

Question: And the “MEAN CORPUSCULAR HEMOGLOBIN” value [1]?
Answer: 24.87 pg

Question: What about the “MEAN CORPUSCULAR HEMOGLOBIN CONCENTRATION” value [1] of the same compound?
Answer: 39.9 G/DL

Question: What about the “MEAN CORPUSCULAR VOLUME” value [1] of the same compound?
Answer: 62.3 fL

Question: And the MONOCYTE [1]?
Answer: 1.33%

Question: And the NEUTROPHIL [1]?
Answer: 9%

Question: And the “NUCLEATED RED BLOOD CELLS” value [1]?
Answer: 0.17 /100WBC

Question: And the “PLATELET COUNT” value [1]?
Answer: 824 x10E3/uL

Question: And the “ALANINE AMINOTRANSFERASE” value [1]?
Answer: 64.83 u/L

Question: What about the ALBUMIN [1] of the same compound?
Answer: 4.08 G/DL

Question: And the “ALKALINE PHOSPHATASE” value [1]?
Answer: 421 u/L

Question: And the “ASPARTATE AMINOTRANSFERASE” value [1]?
Answer: 116.83 u/L

Question: And the “BLOOD UREA NITROGEN” value [1]?
Answer: 16.83 mg/dL

Question: What about the “CARBON DIOXIDE” value [1] of the same compound?
Answer: 28 mmol/L

Question: What about the CHLORIDE [1] of the same compound?
Answer: 101.33 MEQ/L

Question: And the CHOLESTEROL [1]?
Answer: 74.17 mg/dL

Question: And the “CREATINE PHOSPHOKINASE” value [1]?
Answer: 748.5 u/L

Question: And the CREATININE [1]?
Answer: 0.22 mg/dL

Question: What about the GLUCOSE [1] of the same compound?
Answer: 152.83 mg/dL

Question: What about the “LACTATE DEHYDROGENASE” value [1] of the same compound?
Answer: 578.5 u/L

Question: What about the LIPASE [1] of the same compound?
Answer: 9.83 u/L

Question: What about the PHOSPHORUS [1] of the same compound?
Answer: 11.63 mg/dL

Question: And the POTASSIUM [1]?
Answer: 5.93 MEQ/L

Question: And the SODIUM [1]?
Answer: 142.1 MEQ/L

Question: What about the “TOTAL BILIRUBIN” value [1] of the same compound?
Answer: 0.17 mg/dL

Question: And the “TOTAL PROTEIN” value [1]?
Answer: 5.77 G/DL

Question: What about the “URIC ACID” value [1] of the same compound?
Answer: 1.43 mg/dL

Question: And the “ABSOLUTE BASOPHIL” value [2]?
Answer: 0 CELLS/uL

Question: What about the “ABSOLUTE EOSINOPHIL” value [2] of the same compound?
Answer: 159.17 CELLS/uL

Question: And the “ABSOLUTE LYMPHOCYTE” value [2]?
Answer: 12267.5 CELLS/uL

Question: What about the “ABSOLUTE MONOCYTE” value [2] of the same compound?
Answer: 30 CELLS/uL

Question: What about the “ABSOLUTE SEGMENTED NEUTROPHIL” value [2] of the same compound?
Answer: 1160 CELLS/uL

Question: And the BASOPHIL [2]?
Answer: 0%

Question: And the EOSINOPHIL [2]?
Answer: 1.17%

Question: And the “ERYTHROCYTE COUNT” value [2]?
Answer: 5.52 x10E6/uL

Question: What about the HEMATOCRIT [2] of the same compound?
Answer: 34.3%

Question: What about the HEMOGLOBIN [2] of the same compound?
Answer: 13.73 G/DL

Question: And the “LEUKOCYTE COUNT” value [2]?
Answer: 13.62 x10E3/uL

Question: What about the LYMPHOCYTE [2] of the same compound?
Answer: 90.5%

Question: What about the “MEAN CORPUSCULAR HEMOGLOBIN” value [2] of the same compound?
Answer: 24.92 pg

Question: What about the “MEAN CORPUSCULAR HEMOGLOBIN CONCENTRATION” value [2] of the same compound?
Answer: 40.07 G/DL

Question: And the “MEAN CORPUSCULAR VOLUME” value [2]?
Answer: 62.17 fL

Question: What about the MONOCYTE [2] of the same compound?
Answer: 0.17%

Question: And the NEUTROPHIL [2]?
Answer: 8.17%

Question: And the “NUCLEATED RED BLOOD CELLS” value [2]?
Answer: 0.17 /100WBC

Question: And the “PLATELET COUNT” value [2]?
Answer: 1261.83 x10E3/uL

Question: And the “ALANINE AMINOTRANSFERASE” value [2]?
Answer: 58.67 u/L

Question: What about the ALBUMIN [2] of the same compound?
Answer: 4.15 G/DL

Question: What about the “ALKALINE PHOSPHATASE” value [2] of the same compound?
Answer: 364.67 u/L

Question: What about the “ASPARTATE AMINOTRANSFERASE” value [2] of the same compound?
Answer: 105.33 u/L

Question: And the “BLOOD UREA NITROGEN” value [2]?
Answer: 17.67 mg/dL

Question: And the “CARBON DIOXIDE” value [2]?
Answer: 26.5 mmol/L

Question: And the CHLORIDE [2]?
Answer: 101.67 MEQ/L

Question: And the CHOLESTEROL [2]?
Answer: 63 mg/dL

Question: And the “CREATINE PHOSPHOKINASE” value [2]?
Answer: 480.67 u/L

Question: What about the CREATININE [2] of the same compound?
Answer: 0.17 mg/dL

Question: And the GLUCOSE [2]?
Answer: 144.67 mg/dL

Question: What about the “LACTATE DEHYDROGENASE” value [2] of the same compound?
Answer: 540.33 u/L

Question: And the LIPASE [2]?
Answer: 10.33 u/L

Question: What about the PHOSPHORUS [2] of the same compound?
Answer: 11.52 mg/dL

Question: And the POTASSIUM [2]?
Answer: 6.12 MEQ/L

Question: And the SODIUM [2]?
Answer: 142.45 MEQ/L

Question: And the “TOTAL BILIRUBIN” value [2]?
Answer: 0.18 mg/dL

Question: And the “TOTAL PROTEIN” value [2]?
Answer: 5.73 G/DL

Question: What about the “URIC ACID” value [2] of the same compound?
Answer: 1.48 mg/dL

Question: What about the “ABSOLUTE BASOPHIL” value [3] of the same compound?
Answer: 0 CELLS/uL

Question: What about the “ABSOLUTE EOSINOPHIL” value [3] of the same compound?
Answer: 38.67 CELLS/uL

Question: And the “ABSOLUTE LYMPHOCYTE” value [3]?
Answer: 9113.67 CELLS/uL

Question: What about the “ABSOLUTE MONOCYTE” value [3] of the same compound?
Answer: 101 CELLS/uL

Question: And the “ABSOLUTE SEGMENTED NEUTROPHIL” value [3]?
Answer: 846.67 CELLS/uL

Question: And the BASOPHIL [3]?
Answer: 0%

Question: And the EOSINOPHIL [3]?
Answer: 0.33%

Question: What about the “ERYTHROCYTE COUNT” value [3] of the same compound?
Answer: 5.25 x10E6/uL

Question: What about the HEMATOCRIT [3] of the same compound?
Answer: 31.97%

Question: What about the HEMOGLOBIN [3] of the same compound?
Answer: 12.93 G/DL

Question: What about the “LEUKOCYTE COUNT” value [3] of the same compound?
Answer: 10.1 x10E3/uL

Question: What about the LYMPHOCYTE [3] of the same compound?
Answer: 90.33%

Question: And the “MEAN CORPUSCULAR HEMOGLOBIN” value [3]?
Answer: 24.73 pg

Question: And the “MEAN CORPUSCULAR HEMOGLOBIN CONCENTRATION” value [3]?
Answer: 40.53 G/DL

Question: What about the “MEAN CORPUSCULAR VOLUME” value [3] of the same compound?
Answer: 60.97 fL

Question: What about the MONOCYTE [3] of the same compound?
Answer: 1%

Question: And the NEUTROPHIL [3]?
Answer: 8.33%

Question: And the “NUCLEATED RED BLOOD CELLS” value [3]?
Answer: 0 /100WBC

Question: And the “PLATELET COUNT” value [3]?
Answer: 798.67 x10E3/uL

Question: What about the “ABSOLUTE BASOPHIL” value [4] of the same compound?
Answer: 0 CELLS/uL

Question: And the “ABSOLUTE EOSINOPHIL” value [4]?
Answer: 61.33 CELLS/uL

Question: And the “ABSOLUTE LYMPHOCYTE” value [4]?
Answer: 18023 CELLS/uL

Question: What about the “ABSOLUTE MONOCYTE” value [4] of the same compound?
Answer: 62 CELLS/uL

Question: And the “ABSOLUTE SEGMENTED NEUTROPHIL” value [4]?
Answer: 687 CELLS/uL

Question: What about the BASOPHIL [4] of the same compound?
Answer: 0%

Question: What about the EOSINOPHIL [4] of the same compound?
Answer: 0.33%

Question: And the “ERYTHROCYTE COUNT” value [4]?
Answer: 5 x10E6/uL

Question: What about the HEMATOCRIT [4] of the same compound?
Answer: 31.67%

Question: What about the HEMOGLOBIN [4] of the same compound?
Answer: 13 G/DL

Question: And the “LEUKOCYTE COUNT” value [4]?
Answer: 18.83 x10E3/uL

Question: And the LYMPHOCYTE [4]?
Answer: 95.67%

Question: What about the “MEAN CORPUSCULAR HEMOGLOBIN” value [4] of the same compound?
Answer: 26 pg

Question: And the “MEAN CORPUSCULAR HEMOGLOBIN CONCENTRATION” value [4]?
Answer: 41.03 G/DL

Question: And the “MEAN CORPUSCULAR VOLUME” value [4]?
Answer: 63.33 fL

Question: And the MONOCYTE [4]?
Answer: 0.33%

Question: What about the NEUTROPHIL [4] of the same compound?
Answer: 3.67%

Question: And the “NUCLEATED RED BLOOD CELLS” value [4]?
Answer: 0 /100WBC

Question: What about the “PLATELET COUNT” value [4] of the same compound?
Answer: 1148.67 x10E3/uL
